This note sets out measurements from patent US20250018049A1, “COMPOUNDS FOR DEGRADING CYCLIN-DEPENDENT KINASE 2 VIA UBIQUITIN PROTEOSOME PATHWAY” (NIKANG THERAPEUTICS, INC., priority 2020, published 2025).

Common to all, as to format: cell-based
Experiment [1] addresses T1, CDK2 (Homo sapiens, UniProt P24941). Nature of the experiment: NanoBRET CDK2 engagement assay. The following applies: OVCAR3 cells with stable CDK2-Luciferase vector, 24 hours treatment. Set-up: expressed in transfected cells. The method, boiled down:
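OVCAR3 cells stably expressing CDK2-luciferase, in Opti-MEM with 1% FBS, treated 24 h at 37° C with compound from 3 μM in ½-log steps to 0.3 nM; NanoBRET tracer present for final 2 h. Donor/acceptor emission read; engagement normalized to DMSO as 100% signal, IC50 by curve fit.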
(In general: BRET reads energy transfer from a luciferase to a nearby fluorophore.)

Experiment [2] addresses T1, CDK2. The experiment in a line: Phospho-Rb HTRF measurement in OVCAR3 cells (inhibition of CDK2). Further details: High-Throughput Measurement of Cellular Endogenous CDK2; endogenous in cells; host or cells: OVCAR3. The following applies: pRB(S807/811) assay, 24 h compound treatment. In general terms: In TR-FRET formats the signal depends on donor and acceptor labels being close together.

Experiment [3] addresses T1, CDK2. The experiment in a line: CDK2 HTRF assay (cellular endogenous CDK2 level). The conditions noted are these: OVCAR-3; OVCAR3 cells, 24 hours, 0.3 to 10,000 nM; read-out: max degradation of CDK2. Set-up: High-Throughput Measurement of Cellular Endogenous CDK2; endogenous in cells; host or cells: OVCAR3. The procedure: Effects of compounds on cellular CDK2 level can be monitored by a high-throughput HTRF assay or traditional Western Blot assay.
To determine half maximal degradation concentration (DC50) values of compounds, cellular CDK2 level was measured in 96-well format using HTRF total CDK2 cellular kit (Cat #64CDK2TPEG) from Cisbio.
On Day 1, OVCAR3 cells were seeded into 96-well tissue-culture treated plates at 20,000 cells/well in 200 μL and incubated overnight at 37° C. in CO2 atmosphere. On Day 2 cells were treated with compounds at concentration ranging from 0.3 to 10,000 nM using HP D300 digital dispenser. 24 hours after compound treatment, cell culture media was removed by flicking the plate and tapping the plate against clean paper towel. Immediately 30 μL 1× lysis buffer was supplemented from the kit and the plate was incubated at room temperature on shaker for 30 min. After homogenization by pipetting up and down, 8 μL cell lysate from 96-well cell culture plate was transferred to 384-well small volume white detection plate. 2 μL premixed detection solution was added and the plate was covered with sealer. To prepare the detection solution, d2 conjugated-CDK2 antibody and Eu-cryptate conjugated CDK2 antibody were diluted into detection buffer following manufacturer's instruction. Detection plates were incubated overnight at room temperature and read on ClarioStar (BMG Labtech) in TR-FRET mode (665 nM and 620 nM). The TR-FRET ratio (665 nM/620 nM) was plotted against the compound concentration and normalized to DMSO controls. Half maximal degradation concentration (DC50) values were calculated with a four-parameter logistic fit using GraphPad Prism (version 8; La Jolla, CA). FIG. 1 provides a dose-response curve of Compound 1 in Compound Table I in cellular CDK2 HTRF assay. IC50 in FIG. 1 is the same as DC50. Compounds 1, 13, 16, 22, 23, 28, 34, 35, 36, 37, 38, 39, 42, 48, 50, 51, 53, 54, 55, 56, 57, 58, 59, 60, 61, 62, 63, 65, 66, 68, 69, 70 were tested and max degradation of CDK2 observed was from about 35% to about 90%.

A word on the IC50: it is the concentration that inhibits the measured activity by half.

With `Cn1c(=O)n(C2CCC(=O)NC2=O)c2cccc(C#CCOC3CCN(CC4CCN(S(=O)(=O)N5CCC(Nc6ncc7ccc(=O)n(C8CCCC8)c7n6)CC5)CC4)CC3)c21` (stereo not drawn) [Compound 13, 3-(4-(3-((1-((1-((4-((8-cyclopentyl-7-oxo-7,8-dihydropyrido[2,3-d]pyrimidin-2-yl)amino)-piperidin-1-yl)sulfonyl)piperidin-4-yl)methyl)-piperidin-4-yl)oxy)prop-1-yn-1-yl)-3-methyl-2-oxo-2,3-dihydro-1H-benzo[d]imidazol-1-yl)-piperidine-2,6-dione], the figures for the IC50 at CDK2 [1] and at CDK2 [2] were 0.292 µM and 2.12 µM, respectively. Also, the Dmax on CDK2 [3] was in the range of 35 to 90%.
Taken in the same sequence, the figures for `O=C1CCC(N2Cc3cc(N4CC5(CN(Cc6cccc(S(=O)(=O)N7CCC(Nc8ncc9ccc(=O)n(C%10CC%11CC%11C%10)c9n8)CC7)c6)C5)C4)ccc3C2=O)C(=O)N1` (stereo not drawn) [Compound 61, 3-(5-(6-(3-((4-((8-(bicyclo[3.1.0]hexan-3-yl)-7-oxo-7,8-dihydropyrido[2,3-d]pyrimidin-2-yl)amino)piperidin-1-yl)sulfonyl)benzyl)-2,6-diazaspiro[3.3]heptan-2-yl)-1-oxoisoindolin-2-yl)piperidine-2,6-dione] were 0.327 µM, 0.0707 µM and 35 to 90%.
As for `O=C1CCC(N2Cc3cc(N4CC(N5CCN(c6cccc(S(=O)(=O)N7CCC(Nc8ncc9ccc(=O)n(C%10CCCC%10)c9n8)CC7)c6)CC5)C4)ccc3C2=O)C(=O)N1` (stereo not drawn) [Compound 69, 3-(5-(3-(4-(3-((4-((8-cyclopentyl-7-oxo-7,8-dihydropyrido[2,3-d]pyrimidin-2-yl)amino)-piperidin-1-yl)sulfonyl)phenyl)piperazin-1-yl)azetidin-1-yl)-1-oxoisoindolin-2-yl)piperidine-2,6-dione], the results for the IC50 on CDK2 [1] and against CDK2 [2] were 0.149 µM and 0.0318 µM, respectively. Further, the Dmax at CDK2 [3] lay in the range of 35 to 90%.
The corresponding values for `O=C1CCC(N2Cc3cc(N4CC5(CN(Cc6cccc(S(=O)(=O)N7CCC(Nc8ncc9ccc(=O)n(C%10CCCC%10)c9n8)CC7)c6)C5)C4)ccc3C2=O)C(=O)N1` (stereo not drawn) [Compound 60, 3-(5-(6-(3-((4-((8-cyclopentyl-7-oxo-7,8-dihydro-pyrido[2,3-d]pyrimidin-2-yl)amino)piperidin-1-yl)sulfonyl)benzyl)-2,6-diazaspiro[3.3]heptan-2-yl)-1-oxoisoindolin-2-yl)piperidine-2,6-dione] are 0.0645 µM, 0.03 µM and 35 to 90%.
The corresponding values for `O=C1CCC(N2Cc3cc(N4CCN(C5CN(c6cccc(S(=O)(=O)N7CCC(Nc8ncc9ccc(=O)n(C%10CCCC%10)c9n8)CC7)c6)C5)CC4)ccc3C2=O)C(=O)N1` (stereo not drawn) [Compound 70, 3-(5-(4-(1-(3-((4-((8-cyclopentyl-7-oxo-7,8-dihydropyrido[2,3-d]pyrimidin-2-yl)amino)-piperidin-1-yl)sulfonyl)phenyl)-azetidin-3-yl)piperazin-1-yl)-1-oxoisoindolin-2-yl)piperidine-2,6-dione] are 0.0402 µM, 0.0258 µM and 35 to 90%.
The corresponding values for `O=C1CCC(N2Cc3cc(N4CC5CCC(C4)N5Cc4cccc(S(=O)(=O)N5CCC(Nc6ncc7ccc(=O)n(C8CCCC8)c7n6)CC5)c4)ccc3C2=O)C(=O)N1` (stereo not drawn) [Compound 54, 3-(5-(8-(3-((4-((8-cyclopentyl-7-oxo-7,8-dihydro-pyrido[2,3-d]pyrimidin-2-yl)amino)piperidin-1-yl)sulfonyl)benzyl)-3,8-diazabicyclo[3.2.1]octan-3-yl)-1-oxoisoindolin-2-yl)piperidine-2,6-dione] are 0.214 µM, 0.0725 µM and 35 to 90%.
Turning to `O=C1CCC(N2Cc3cc(C4CCN(CC5CCN(c6cccc(S(=O)(=O)N7CCC(Nc8ncc9ccc(=O)n(C%10CCCC%10)c9n8)CC7)c6)CC5)CC4)ccc3C2=O)C(=O)N1` (stereo not drawn) [Compound 35, 3-(5-(1-((1-(3-((4-((8-cyclopentyl-7-oxo-7,8-dihydropyrido[2,3-d]pyrimidin-2-yl)amino)-piperidin-1-yl)sulfonyl)phenyl)piperidin-4-yl)-methyl)piperidin-4-yl)-1-oxoisoindolin-2-yl)piperidine-2,6-dione], the IC50 stood at 0.139 µM on CDK2 [1] and 71.1 µM against CDK2 [2]. Further, the Dmax on CDK2 [3] lay in the range of 35 to 90%.
Taken in the same sequence, the figures for `O=C1CCC(N2Cc3cc(N4CCN(Cc5cccc(S(=O)(=O)N6CCC(Nc7ncc8ccc(=O)n(C9CCCC9)c8n7)CC6)c5)CC4)c(F)cc3C2=O)C(=O)N1` (stereo not drawn) [Compound 42, 3-(5-(4-(3-((4-((8-cyclopentyl-7-oxo-7,8-dihydropyrido[2,3-d]pyrimidin-2-yl)amino)-piperidin-1-yl)sulfonyl)benzyl)piperazin-1-yl)-6-fluoro-1-oxoisoindolin-2-yl)piperidine-2,6-dione] were 0.297 µM, 0.0247 µM and 35 to 90%.
The corresponding values for `O=C1CCC(N2Cc3cc(N4CC5(CCN(Cc6cccc(S(=O)(=O)N7CCC(Nc8ncc9ccc(=O)n(C%10CCCC%10)c9n8)CC7)c6)CC5)C4)ccc3C2=O)C(=O)N1` (stereo not drawn) [Compound 58, 3-(5-(7-(3-((4-((8-cyclopentyl-7-oxo-7,8-dihydropyrido[2,3-d]pyrimidin-2-yl)amino)-piperidin-1-yl)sulfonyl)benzyl)-2,7-diazaspiro-[3.5]nonan-2-yl)-1-oxoisoindolin-2-yl)piperidine-2,6-dione] are 0.291 µM, 0.155 µM and 35 to 90%.
For `O=C1CCC(N2Cc3cc(N4CC5CC4CN5Cc4cccc(S(=O)(=O)N5CCC(Nc6ncc7ccc(=O)n(C8CCCC8)c7n6)CC5)c4)ccc3C2=O)C(=O)N1` (stereo not drawn) [Compound 53, 3-(5-(5-(3-((4-((8-cyclopentyl-7-oxo-7,8-dihydropyrido[2,3-d]pyrimidin-2-yl)amino)-piperidin-1-yl)sulfonyl)benzyl)-2,5-diazabicyclo-[2.2.1]heptan-2-yl)-1-oxoisoindolin-2-yl)-piperidine-2,6-dione], the IC50 was found to be 0.152 µM against CDK2 [1] and 0.259 µM against CDK2 [2]. The Dmax on CDK2 [3] fell in the range of 35 to 90%.
As to `O=C1CCC(N2Cc3cc(N4CCC(CN5CCN(c6cccc(S(=O)(=O)N7CCC(Nc8ncc9ccc(=O)n(C%10CCCC%10)c9n8)CC7)c6)CC5)CC4)ccc3C2=O)C(=O)N1` (stereo not drawn) [Compound 38, 3-(5-(4-((4-(3-((4-((8-cyclopentyl-7-oxo-7,8-dihydropyrido[2,3-d]pyrimidin-2-yl)amino)-piperidin-1-yl)sulfonyl)phenyl)piperazin-1-yl)-methyl)piperidin-1-yl)-1-oxoisoindolin-2-yl)-piperidine-2,6-dione], the IC50 was found to be 0.0423 µM on CDK2 [1] and 0.0111 µM on CDK2 [2]. Further, the Dmax on CDK2 [3] fell in the range of 35 to 90%.
For the molecule `Cn1c(=O)n(C2CCC(=O)NC2=O)c2cccc(CCCOC3CCN(S(=O)(=O)N4CCC(Nc5ncc6ccc(=O)n(C7CCCC7)c6n5)CC4)CC3)c21` (stereo not drawn) [Compound 16, 3-(4-(3-((1-((4-((8-cyclopentyl-7-oxo-7,8-dihydropyrido[2,3-d]pyrimidin-2-yl)amino)-piperidin-1-yl)sulfonyl)piperidin-4-yl)oxy)propyl)-3-methyl-2-oxo-2,3-dihydro-1H-benzo[d]-imidazol-1-yl)piperidine-2,6-dione], the IC50 was 0.32 µM against CDK2 [1] and 0.495 µM on CDK2 [2]. Besides, the Dmax at CDK2 [3] lay within 35 to 90%.
